Assay [1] concerns BRCA1. The assay is described as follows: DDR gene expression in HCC70 xenograft tumor cells. Format: in vivo, CB-17 SCID mice. Conditions: single intravenous dose 20 or 25 mg/kg; 6 and 24 hours after dose. On the procedure: A triple-negative xenograft model of breast cancer was used in this experiment. CB-17 SCID mice were inoculated with the HCC70 cells as the in vivo model for triple negative breast cancer. Each mouse was inoculated subcutaneously on the right flank with HCC70 tumor cells (5×10^6) in 0.1 mL of RPMI-1640 Medium and Matrigel mixture (1:1 ratio) for tumor development. The treatment started when the mean tumor size reached approximately 100-150 mm^3. Mice were treated with a single dose of either vehicle, 20 mg/kg compound 4, or 25 mg/kg of compound 4 intravenously. 0.5, 6, and 24 hours post dose, tumor cells were collected and analyzed for gene expression.

The test system of assay [2] is RNA polymerase II. The assay can be described thus: Phosphorylation of RNA polymerase II (pS2/S2) in HCC70 xenograft. Conditions: intravenous; compound 4 20 or 25 mg/kg, compound 5 10 or 25 mg/kg; 0.5, 6 and 24 hours after the dose. It is filed as in vivo, CB-17 SCID mice. As to the method:
The ability of compound 4 and compound 5 to inhibit phosphorylation of RNA polymerase II at the S2 unit was analyzed in a mouse xenograft model of triple-negative breast cancer. CB-17 SCID mice were inoculated with the HCC70 cells as the in vivo model for triple negative breast cancer. Each mouse was inoculated subcutaneously on the right flank with HCC70 tumor cells (5×106) in 0.1 mL of RPMI-1640 Medium and Matrigel mixture (1:1 ratio) for tumor development. The treatment started when the mean tumor size reached approximately 100-150 mm^3. Mice were treated intravenously with vehicle only, 20 mg/kg of compound 4, 25 mg/kg of compound 4, 10 mg/kg of compound 5, or 25 mg/kg of compound 5 for 2 hours. Measurements were taken at 0.5 hours, 6 hours and 24 hours after the dose. The amount of phosphorylated RNA polymerase II and the total amount of RNA polymerase II was analyzed. The values were normalized by taking the ratio of the phosphorylated RNA polymerase II to the total RNA polymerase II (pS2/S2).

The target in assay [3] is T1, ABL1 (Homo sapiens, UniProt P00519).
T1 construct: purchased ProQinase GmbH (Reaction Biology)
T1 sequence (P00519 whole entry): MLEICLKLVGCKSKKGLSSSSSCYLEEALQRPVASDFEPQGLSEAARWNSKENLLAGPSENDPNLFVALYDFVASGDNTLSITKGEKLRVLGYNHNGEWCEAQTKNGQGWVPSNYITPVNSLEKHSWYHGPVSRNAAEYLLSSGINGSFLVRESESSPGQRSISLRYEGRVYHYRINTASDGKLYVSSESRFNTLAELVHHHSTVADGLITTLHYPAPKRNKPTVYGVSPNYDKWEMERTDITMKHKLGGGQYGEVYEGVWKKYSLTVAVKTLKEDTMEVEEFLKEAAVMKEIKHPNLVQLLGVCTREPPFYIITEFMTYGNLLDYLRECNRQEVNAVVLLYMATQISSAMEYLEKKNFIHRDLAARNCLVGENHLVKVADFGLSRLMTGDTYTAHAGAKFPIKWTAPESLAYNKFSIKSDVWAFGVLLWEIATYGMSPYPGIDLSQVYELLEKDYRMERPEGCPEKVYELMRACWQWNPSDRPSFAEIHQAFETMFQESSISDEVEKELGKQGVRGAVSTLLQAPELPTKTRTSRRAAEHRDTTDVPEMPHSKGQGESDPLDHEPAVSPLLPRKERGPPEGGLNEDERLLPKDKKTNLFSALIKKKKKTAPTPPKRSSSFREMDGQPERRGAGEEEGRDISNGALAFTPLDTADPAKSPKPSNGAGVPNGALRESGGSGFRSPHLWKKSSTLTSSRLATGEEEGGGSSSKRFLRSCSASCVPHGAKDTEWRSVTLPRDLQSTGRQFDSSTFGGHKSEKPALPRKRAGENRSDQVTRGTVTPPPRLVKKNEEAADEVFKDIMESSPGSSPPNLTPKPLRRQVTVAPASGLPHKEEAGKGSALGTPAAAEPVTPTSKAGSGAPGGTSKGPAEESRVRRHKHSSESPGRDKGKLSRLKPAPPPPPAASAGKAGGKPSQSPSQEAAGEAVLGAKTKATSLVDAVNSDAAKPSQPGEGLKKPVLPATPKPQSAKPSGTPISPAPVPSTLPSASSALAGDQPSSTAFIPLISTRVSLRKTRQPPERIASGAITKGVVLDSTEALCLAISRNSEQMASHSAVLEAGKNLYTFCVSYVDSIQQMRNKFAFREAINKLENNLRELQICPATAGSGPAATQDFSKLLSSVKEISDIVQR
The assay is described as follows: Radiometric kinase panel. Format: biochemical. The procedure, abridged: (§1)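 Activity was measured radiometrically from [gamma-33P]-ATP incorporation into substrate. The kinases were recombinant human GST- or His-tagged proteins, full-length or active fragments, expressed in Sf9 or E. coli. Compound in 10% DMSO was added before the enzyme/substrate mix, which started the reaction.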

Assay [4] concerns the target T2, CAMKK2 (Homo sapiens, UniProt Q96RR4).
T2 construct: either as full-length or enzymatically active fragments; purchased ProQinase GmbH (Reaction Biology); host or cells: Sf9 insect cells or E. coli (not specified per kinase)
The assay can be described thus: Radiometric kinase panel. It is filed as biochemical. The essentials: as §1

Assay [5] has as its target T3, GRK5 (Homo sapiens, UniProt P34947).
T3 construct: either as full-length or enzymatically active fragments; purchased ProQinase GmbH (Reaction Biology)
The assay can be described thus: Radiometric kinase panel. It is filed as biochemical. The essentials: as §1

For assay [6], the target named is T4, MST3 (Homo sapiens, UniProt Q9Y6E0).
T4 construct: either as full-length or enzymatically active fragments; purchased ProQinase GmbH (Reaction Biology)
T4 sequence (Q9Y6E0 whole entry, the tested form may be a part): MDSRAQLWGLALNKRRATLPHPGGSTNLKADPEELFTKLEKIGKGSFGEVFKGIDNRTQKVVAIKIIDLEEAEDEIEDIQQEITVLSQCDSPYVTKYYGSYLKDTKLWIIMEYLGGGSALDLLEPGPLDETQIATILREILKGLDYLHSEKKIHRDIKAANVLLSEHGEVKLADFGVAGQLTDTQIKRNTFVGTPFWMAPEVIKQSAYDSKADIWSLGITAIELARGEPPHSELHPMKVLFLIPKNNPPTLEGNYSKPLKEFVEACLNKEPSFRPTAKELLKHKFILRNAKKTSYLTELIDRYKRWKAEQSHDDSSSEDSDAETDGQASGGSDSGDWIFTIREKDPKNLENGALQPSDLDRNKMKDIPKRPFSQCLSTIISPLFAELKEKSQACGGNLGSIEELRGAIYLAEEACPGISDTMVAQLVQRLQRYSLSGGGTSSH
The assay can be described thus: Radiometric kinase panel. Format: biochemical. The essentials:
as §1

In assay [7] the target is T5, CK2alpha1 (Homo sapiens, UniProt P68400).
T5 construct: either as full-length or enzymatically active fragments; purchased ProQinase GmbH (Reaction Biology)
T5 sequence (P68400 whole entry, the tested form may be a part): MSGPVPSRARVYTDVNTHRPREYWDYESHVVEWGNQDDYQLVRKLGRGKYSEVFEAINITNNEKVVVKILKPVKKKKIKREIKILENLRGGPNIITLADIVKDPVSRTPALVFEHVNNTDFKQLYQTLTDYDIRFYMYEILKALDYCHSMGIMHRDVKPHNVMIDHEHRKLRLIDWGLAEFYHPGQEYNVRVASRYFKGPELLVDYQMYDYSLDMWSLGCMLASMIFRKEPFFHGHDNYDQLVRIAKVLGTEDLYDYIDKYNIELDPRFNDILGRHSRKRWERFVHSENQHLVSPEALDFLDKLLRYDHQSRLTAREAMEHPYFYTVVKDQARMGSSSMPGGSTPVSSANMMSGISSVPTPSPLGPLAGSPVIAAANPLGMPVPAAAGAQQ
The assay is described as follows: Radiometric kinase panel. It is filed as biochemical. The essentials: as §1

Assay [8] addresses T6, GSK3alpha (Homo sapiens, UniProt P49840).
T6 construct: either as full-length or enzymatically active fragments; purchased ProQinase GmbH (Reaction Biology)
The assay is described as follows: Radiometric kinase panel. Format: biochemical. The essentials:
as §1

Assay [9] concerns the target T7, ERBB2 (Homo sapiens, UniProt P04626).
T7 construct: either as full-length or enzymatically active fragments; purchased ProQinase GmbH (Reaction Biology)
The assay is described as follows: Radiometric kinase panel. It is filed as biochemical. The procedure, abridged:
as §1

The target of assay [10] is T8, PKCnu (Homo sapiens, UniProt O94806).
T8 construct: either as full-length or enzymatically active fragments; purchased ProQinase GmbH (Reaction Biology)
T8 sequence (O94806 whole entry, the tested form may be a part): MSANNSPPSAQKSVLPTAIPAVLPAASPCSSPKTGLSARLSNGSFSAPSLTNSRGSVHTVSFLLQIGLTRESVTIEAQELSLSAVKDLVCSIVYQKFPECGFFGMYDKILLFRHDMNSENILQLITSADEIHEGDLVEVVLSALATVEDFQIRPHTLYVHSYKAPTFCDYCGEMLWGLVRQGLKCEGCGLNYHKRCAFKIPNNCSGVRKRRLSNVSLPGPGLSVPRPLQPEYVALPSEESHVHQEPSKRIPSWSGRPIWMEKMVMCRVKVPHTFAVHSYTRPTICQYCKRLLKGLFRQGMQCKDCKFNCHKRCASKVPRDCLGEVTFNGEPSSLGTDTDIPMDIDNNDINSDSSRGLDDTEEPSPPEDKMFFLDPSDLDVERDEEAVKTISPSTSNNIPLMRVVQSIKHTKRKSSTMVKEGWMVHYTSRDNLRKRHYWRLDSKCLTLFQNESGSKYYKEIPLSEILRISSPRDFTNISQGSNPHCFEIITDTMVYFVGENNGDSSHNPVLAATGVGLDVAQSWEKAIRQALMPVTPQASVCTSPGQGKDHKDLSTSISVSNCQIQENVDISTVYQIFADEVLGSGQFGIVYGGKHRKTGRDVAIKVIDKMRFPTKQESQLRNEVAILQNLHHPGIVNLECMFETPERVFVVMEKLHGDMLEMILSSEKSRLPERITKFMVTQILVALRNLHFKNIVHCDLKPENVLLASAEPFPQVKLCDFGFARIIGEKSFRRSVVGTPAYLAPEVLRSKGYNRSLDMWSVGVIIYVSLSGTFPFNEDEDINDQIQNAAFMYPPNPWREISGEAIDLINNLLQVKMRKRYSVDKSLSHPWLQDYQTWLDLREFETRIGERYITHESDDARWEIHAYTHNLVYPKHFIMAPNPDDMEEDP
The assay can be described thus: Radiometric kinase panel. Format: biochemical. The essentials:
as §1

Assay [11] deals with T9, CLK4 (Homo sapiens, UniProt Q9HAZ1).
T9 construct: purchased ProQinase GmbH (Reaction Biology)
The assay can be described thus: Radiometric kinase panel. It is filed as biochemical. The procedure, abridged:
as §1

The target in assay [12] is T10, TXK (Homo sapiens, UniProt P42681).
T10 construct: either as full-length or enzymatically active fragments; purchased ProQinase GmbH (Reaction Biology)
T10 sequence (P42681 whole entry, the tested form may be a part): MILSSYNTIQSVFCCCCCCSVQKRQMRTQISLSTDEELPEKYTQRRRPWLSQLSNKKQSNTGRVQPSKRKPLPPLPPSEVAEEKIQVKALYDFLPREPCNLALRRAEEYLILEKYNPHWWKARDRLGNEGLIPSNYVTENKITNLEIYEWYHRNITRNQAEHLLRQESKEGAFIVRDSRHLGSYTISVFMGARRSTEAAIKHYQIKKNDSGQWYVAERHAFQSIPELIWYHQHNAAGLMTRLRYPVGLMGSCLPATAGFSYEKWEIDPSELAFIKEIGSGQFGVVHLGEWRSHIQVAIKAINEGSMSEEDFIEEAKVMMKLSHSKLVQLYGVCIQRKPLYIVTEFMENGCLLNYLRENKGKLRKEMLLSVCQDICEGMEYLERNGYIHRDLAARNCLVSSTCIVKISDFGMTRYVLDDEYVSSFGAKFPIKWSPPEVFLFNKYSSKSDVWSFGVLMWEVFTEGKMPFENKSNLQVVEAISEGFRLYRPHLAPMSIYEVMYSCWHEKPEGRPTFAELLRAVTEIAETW
The assay is described as follows: Radiometric kinase panel. It is filed as biochemical. The essentials:
as §1

In assay [13] the target is T11, TYK2 (Homo sapiens, UniProt P29597).
T11 construct: either as full-length or enzymatically active fragments; purchased ProQinase GmbH (Reaction Biology)
The assay is described as follows: Radiometric kinase panel. Format: biochemical. The procedure, abridged:
as §1

Assay [14] deals with T12, CK1gamma3 (Homo sapiens, UniProt Q9Y6M4).
T12 construct: either as full-length or enzymatically active fragments; purchased ProQinase GmbH (Reaction Biology)
T12 sequence (Q9Y6M4 whole entry, the tested form may be a part): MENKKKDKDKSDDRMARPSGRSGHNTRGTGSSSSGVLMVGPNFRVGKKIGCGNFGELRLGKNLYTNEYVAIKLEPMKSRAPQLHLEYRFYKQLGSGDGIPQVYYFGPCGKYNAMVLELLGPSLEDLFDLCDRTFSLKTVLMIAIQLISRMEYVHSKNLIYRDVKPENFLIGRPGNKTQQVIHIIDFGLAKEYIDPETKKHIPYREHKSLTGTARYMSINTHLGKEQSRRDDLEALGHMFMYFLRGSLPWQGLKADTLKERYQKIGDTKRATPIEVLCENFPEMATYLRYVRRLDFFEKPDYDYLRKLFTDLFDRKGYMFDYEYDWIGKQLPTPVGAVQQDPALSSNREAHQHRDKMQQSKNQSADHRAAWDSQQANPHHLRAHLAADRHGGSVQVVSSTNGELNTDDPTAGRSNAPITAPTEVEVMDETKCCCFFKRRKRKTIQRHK
The assay can be described thus: Radiometric kinase panel. It is filed as biochemical. The essentials:
as §1

Assay [15] concerns the target T13, PRK2 (Homo sapiens, UniProt Q16513).
T13 construct: either as full-length or enzymatically active fragments; purchased ProQinase GmbH (Reaction Biology)
The assay is described as follows: Radiometric kinase panel. It is filed as biochemical. The procedure, abridged:
as §1

Assay [16] has as its target T14, MEKK3 (Homo sapiens, UniProt Q99759).
T14 construct: purchased ProQinase GmbH (Reaction Biology); host or cells: Sf9 insect cells or E. coli (not specified per kinase)
The assay is described as follows: Radiometric kinase panel. Format: biochemical. The procedure, abridged:
as §1

Assay [17] has as its target T15, MLK4 (Homo sapiens, UniProt Q5TCX8).
T15 construct: either as full-length or enzymatically active fragments; purchased ProQinase GmbH (Reaction Biology); host or cells: Sf9 insect cells or E. coli (not specified per kinase)
The assay is described as follows: Radiometric kinase panel. Format: biochemical. The procedure, abridged: as §1

The subject of assay [18] is non-CDK12/13 kinases. The assay is described as follows: Radiometric kinase panel, summary. It is filed as biochemical, human. To be noted: 1 μM. As to the method:
The compounds 1-5 (see Table 1) were assayed for kinase activity at ProQinase (ProQinase GmbH, Reaction Biology; Freiburg, Germany) using their commercially available radiometric kinase assay services. Briefly, the compounds were provided as solids and were dissolved to 1×10^−03 M/100% DMSO stock solutions on the day of assay. All protein kinases were provided by ProQinase and were expressed in Sf9 insect cells or in E. coli as recombinant GST-fusion proteins or His-tagged proteins, either as full-length or enzymatically active fragments. All kinases were produced from human cDNAs and purified by either GSH-affinity chromatography or immobilized metal. The purity of the protein kinases was examined by SDS-PAGE/Coomassie staining, the identity was checked by mass spectroscopy. A radiometric protein kinase assay (^33PanQinase® Activity Assay) was used for measuring the kinase activity of the protein kinase. All kinase assays were performed in 96-well FlashPlates™ from PerkinElmer (Boston, Mass., USA) in a 50 microliter reaction volume. […]
Compound 4 was analyzed for selectivity against a panel of other kinases at ProQinase using their commercially available radiometric kinase assay services and the methods described in Example 1.

Molecules are shown by their SMILES.

T6 sequence (P49840 whole entry, the tested form may be a part): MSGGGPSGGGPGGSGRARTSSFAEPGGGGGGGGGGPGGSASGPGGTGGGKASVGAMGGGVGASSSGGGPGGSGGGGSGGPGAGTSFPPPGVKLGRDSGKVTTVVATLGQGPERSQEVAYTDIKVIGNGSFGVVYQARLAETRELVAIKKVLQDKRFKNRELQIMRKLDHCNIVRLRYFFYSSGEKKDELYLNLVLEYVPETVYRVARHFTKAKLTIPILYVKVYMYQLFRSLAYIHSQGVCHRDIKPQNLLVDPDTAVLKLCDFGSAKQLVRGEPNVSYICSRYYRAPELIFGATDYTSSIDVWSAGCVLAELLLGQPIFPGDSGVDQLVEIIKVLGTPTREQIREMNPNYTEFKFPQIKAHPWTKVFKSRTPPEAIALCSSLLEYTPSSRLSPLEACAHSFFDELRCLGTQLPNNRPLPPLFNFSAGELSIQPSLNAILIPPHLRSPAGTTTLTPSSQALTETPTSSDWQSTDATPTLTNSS
T14 sequence (Q99759 whole entry): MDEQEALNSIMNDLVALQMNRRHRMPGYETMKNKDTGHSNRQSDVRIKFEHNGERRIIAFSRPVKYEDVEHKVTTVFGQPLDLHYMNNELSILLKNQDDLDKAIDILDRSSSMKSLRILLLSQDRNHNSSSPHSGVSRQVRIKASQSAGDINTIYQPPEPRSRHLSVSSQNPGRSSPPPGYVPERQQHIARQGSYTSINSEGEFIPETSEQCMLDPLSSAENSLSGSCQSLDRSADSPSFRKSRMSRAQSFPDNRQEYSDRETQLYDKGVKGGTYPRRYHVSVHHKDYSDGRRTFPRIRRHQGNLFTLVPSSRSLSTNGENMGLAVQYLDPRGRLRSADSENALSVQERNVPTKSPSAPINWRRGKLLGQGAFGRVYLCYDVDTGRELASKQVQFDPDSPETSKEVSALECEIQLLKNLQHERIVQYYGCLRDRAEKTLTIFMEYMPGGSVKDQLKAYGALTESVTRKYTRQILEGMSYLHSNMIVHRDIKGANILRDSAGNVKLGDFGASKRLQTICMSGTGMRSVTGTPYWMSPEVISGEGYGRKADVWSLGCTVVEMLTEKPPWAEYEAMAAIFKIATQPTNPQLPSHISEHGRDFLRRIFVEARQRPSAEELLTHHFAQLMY

Regarding `C=CC(=O)Nc1ccc(C(=O)N2CC[C@@H](Nc3ncc(C#N)cn3)C2)cc1` [Compound 4, (R)-N-(4-(3-((5-cyanopyrimidin-2-yl)amino)pyrrolidine-1-carbonyl)phenyl)acrylamide], the “BRCA1 expression in tumor cells” value in assay [1] is “reduced”. In [2], the “pS2/S2 compared to treatment with the vehicle alone” value is listed as “reduced the pS2/S2 at all time points”. Further, the inhibition at 1 µM is -1% in assay [3]; 9% in assay [4]; -6% in assay [5]; 3% in assay [6]; -4% in assay [7]; 6% in assay [8]. The inhibition at 1 µM is 5% in assay [9]; 4% in [10]; -2% in assay [11]; 6% in assay [12]; 6% in assay [13]; -8% in assay [14]. The inhibition at 1 µM is 2% in [15], 1% in assay [16] and 9% in assay [17]. In addition, the “average percent of inhibition against non-CDK12/13 kinases” value in assay [18] is listed as “low average percent of inhibition”.

The record behind these values is patent publication US20230074545A1, “TREATMENT OF CANCER WITH CDK12/13 INHIBITORS” (Kinnate Biopharma Inc., priority 2019, published 2023).
